Patent US20240269139A1, “COMPOUNDS FOR TARGETED PROTEIN DEGRADATION OF KINASES” (DANA-FARBER CANCER INSTITUTE, INC., priority 2020, published 2024)
Like-named read-outs stand apart in the source and are kept apart here.

Legend:
Format in all cases: cell-based
[1] = molecular target: protein kinases (human kinome) (Homo sapiens, UniProt P54646); conditions: for logFC: PRKAA2 (P54646)
[2] = molecular target: protein kinases (human kinome) (Homo sapiens, UniProt P49840); conditions: GSK3A P49840; experiment wp146
Sequence of protein kinases (human kinome) (Homo sapiens, UniProt P49840) (P49840 whole entry): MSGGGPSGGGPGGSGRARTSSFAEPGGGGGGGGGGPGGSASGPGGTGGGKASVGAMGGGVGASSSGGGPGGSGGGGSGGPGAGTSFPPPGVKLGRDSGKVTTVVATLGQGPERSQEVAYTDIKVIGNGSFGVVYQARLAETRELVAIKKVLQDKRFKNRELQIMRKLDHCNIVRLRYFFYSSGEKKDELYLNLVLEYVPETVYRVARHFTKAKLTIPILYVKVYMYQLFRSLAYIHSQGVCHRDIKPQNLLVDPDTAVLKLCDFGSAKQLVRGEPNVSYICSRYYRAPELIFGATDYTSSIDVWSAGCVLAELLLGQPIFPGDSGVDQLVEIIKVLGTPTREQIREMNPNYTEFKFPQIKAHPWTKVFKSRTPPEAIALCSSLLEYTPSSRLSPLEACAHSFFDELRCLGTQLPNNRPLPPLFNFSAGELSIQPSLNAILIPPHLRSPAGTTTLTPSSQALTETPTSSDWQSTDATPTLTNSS

[3] = molecular target: T1, protein kinases (human kinome) (Homo sapiens, UniProt Q9NRH2); conditions: for logFC: SNRK (Q9NRH2)
T1 sequence (Q9NRH2 1-765): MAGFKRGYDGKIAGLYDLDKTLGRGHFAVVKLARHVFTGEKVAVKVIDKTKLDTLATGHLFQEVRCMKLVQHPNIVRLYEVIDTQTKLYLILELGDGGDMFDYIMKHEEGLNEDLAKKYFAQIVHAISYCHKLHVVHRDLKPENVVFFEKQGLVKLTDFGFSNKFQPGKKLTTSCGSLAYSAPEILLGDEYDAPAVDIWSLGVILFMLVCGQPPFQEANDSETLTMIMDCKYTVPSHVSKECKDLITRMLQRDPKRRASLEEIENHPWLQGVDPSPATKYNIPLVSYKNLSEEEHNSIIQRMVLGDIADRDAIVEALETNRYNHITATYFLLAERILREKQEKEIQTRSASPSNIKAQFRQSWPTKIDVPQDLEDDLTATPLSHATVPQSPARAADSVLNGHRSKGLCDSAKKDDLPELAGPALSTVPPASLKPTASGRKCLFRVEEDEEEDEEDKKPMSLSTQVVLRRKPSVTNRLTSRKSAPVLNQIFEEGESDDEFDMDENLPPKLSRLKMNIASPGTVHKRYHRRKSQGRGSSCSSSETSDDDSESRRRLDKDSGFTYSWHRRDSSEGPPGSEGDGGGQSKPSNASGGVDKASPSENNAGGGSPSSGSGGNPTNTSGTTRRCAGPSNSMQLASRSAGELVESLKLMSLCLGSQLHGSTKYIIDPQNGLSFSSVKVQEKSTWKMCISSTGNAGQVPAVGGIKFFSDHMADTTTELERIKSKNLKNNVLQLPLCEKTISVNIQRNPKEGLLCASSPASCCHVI

[4] = molecular target: protein kinases (human kinome) (Homo sapiens, UniProt Q9NSY1); conditions: BMP2K Q9NSY1
Sequence of protein kinases (human kinome) (Homo sapiens, UniProt Q9NSY1) (Q9NSY1 whole entry): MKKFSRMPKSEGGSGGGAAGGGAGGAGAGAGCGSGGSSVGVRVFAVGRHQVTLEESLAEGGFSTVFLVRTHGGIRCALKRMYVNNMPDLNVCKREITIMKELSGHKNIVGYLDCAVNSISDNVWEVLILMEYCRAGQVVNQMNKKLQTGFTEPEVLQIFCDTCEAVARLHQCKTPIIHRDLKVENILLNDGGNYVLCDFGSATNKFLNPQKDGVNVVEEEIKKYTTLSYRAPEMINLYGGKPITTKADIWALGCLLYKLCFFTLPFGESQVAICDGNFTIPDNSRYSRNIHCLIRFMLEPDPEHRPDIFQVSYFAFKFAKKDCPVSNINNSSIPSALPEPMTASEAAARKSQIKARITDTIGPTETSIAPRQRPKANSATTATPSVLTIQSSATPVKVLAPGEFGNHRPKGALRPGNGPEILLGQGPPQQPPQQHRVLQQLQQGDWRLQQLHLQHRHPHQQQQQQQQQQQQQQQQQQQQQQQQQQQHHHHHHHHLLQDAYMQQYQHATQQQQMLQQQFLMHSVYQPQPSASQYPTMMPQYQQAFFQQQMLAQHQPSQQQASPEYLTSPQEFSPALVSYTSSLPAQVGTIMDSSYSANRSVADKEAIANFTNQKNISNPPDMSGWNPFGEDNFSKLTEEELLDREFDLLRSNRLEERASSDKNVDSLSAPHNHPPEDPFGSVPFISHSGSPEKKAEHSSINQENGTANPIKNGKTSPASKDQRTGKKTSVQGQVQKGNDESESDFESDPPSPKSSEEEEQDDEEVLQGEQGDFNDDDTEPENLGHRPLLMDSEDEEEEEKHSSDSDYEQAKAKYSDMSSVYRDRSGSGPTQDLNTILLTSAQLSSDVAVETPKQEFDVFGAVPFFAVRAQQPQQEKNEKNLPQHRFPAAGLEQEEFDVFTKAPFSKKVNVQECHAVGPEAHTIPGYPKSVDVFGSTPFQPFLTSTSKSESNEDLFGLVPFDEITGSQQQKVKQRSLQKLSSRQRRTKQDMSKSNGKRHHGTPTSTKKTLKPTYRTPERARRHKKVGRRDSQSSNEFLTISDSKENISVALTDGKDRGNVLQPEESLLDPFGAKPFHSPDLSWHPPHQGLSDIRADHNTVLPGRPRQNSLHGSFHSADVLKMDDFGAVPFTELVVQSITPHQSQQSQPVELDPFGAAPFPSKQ

[5] = molecular target: protein kinases (human kinome) (Homo sapiens, UniProt P12931); conditions: experiment wp160, 4 hr
Sequence of protein kinases (human kinome) (Homo sapiens, UniProt P12931) (P12931 whole entry): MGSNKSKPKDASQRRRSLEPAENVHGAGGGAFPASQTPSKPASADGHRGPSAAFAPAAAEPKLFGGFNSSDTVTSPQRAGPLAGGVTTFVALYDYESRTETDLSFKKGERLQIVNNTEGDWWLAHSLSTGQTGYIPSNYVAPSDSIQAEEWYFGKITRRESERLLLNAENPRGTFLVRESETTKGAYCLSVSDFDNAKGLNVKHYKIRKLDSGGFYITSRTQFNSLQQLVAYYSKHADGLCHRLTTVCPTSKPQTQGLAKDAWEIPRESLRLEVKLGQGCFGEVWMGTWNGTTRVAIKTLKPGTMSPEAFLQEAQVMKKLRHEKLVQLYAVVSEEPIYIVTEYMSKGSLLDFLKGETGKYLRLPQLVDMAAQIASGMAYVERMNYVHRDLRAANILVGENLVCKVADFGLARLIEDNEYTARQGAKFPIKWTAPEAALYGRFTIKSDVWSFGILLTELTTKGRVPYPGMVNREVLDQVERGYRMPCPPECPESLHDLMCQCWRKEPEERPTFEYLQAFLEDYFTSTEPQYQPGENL

[6] = molecular target: protein kinases (human kinome) (Homo sapiens, UniProt P06241); conditions: for logFC FYN: Accession P06241-1; for logFC: FYN (P06241-1), direction down
Sequence of protein kinases (human kinome) (Homo sapiens, UniProt P06241) (P06241 whole entry): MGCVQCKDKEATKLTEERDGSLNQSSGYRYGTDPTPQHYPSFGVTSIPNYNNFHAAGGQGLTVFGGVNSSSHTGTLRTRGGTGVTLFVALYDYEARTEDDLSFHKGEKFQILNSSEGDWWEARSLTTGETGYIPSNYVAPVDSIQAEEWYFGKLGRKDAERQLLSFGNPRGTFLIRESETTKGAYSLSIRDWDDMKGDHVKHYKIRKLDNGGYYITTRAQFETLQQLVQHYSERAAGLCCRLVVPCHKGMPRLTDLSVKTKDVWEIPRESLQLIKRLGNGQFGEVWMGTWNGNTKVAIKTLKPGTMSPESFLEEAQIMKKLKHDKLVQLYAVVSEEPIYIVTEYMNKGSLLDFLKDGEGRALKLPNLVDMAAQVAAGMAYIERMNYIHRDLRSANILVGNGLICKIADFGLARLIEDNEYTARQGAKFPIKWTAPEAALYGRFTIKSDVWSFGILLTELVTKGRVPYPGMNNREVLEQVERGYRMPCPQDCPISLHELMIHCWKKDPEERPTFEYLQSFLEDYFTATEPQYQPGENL

Sequence of protein kinases (human kinome) (Homo sapiens, UniProt P54646) (P54646 whole entry): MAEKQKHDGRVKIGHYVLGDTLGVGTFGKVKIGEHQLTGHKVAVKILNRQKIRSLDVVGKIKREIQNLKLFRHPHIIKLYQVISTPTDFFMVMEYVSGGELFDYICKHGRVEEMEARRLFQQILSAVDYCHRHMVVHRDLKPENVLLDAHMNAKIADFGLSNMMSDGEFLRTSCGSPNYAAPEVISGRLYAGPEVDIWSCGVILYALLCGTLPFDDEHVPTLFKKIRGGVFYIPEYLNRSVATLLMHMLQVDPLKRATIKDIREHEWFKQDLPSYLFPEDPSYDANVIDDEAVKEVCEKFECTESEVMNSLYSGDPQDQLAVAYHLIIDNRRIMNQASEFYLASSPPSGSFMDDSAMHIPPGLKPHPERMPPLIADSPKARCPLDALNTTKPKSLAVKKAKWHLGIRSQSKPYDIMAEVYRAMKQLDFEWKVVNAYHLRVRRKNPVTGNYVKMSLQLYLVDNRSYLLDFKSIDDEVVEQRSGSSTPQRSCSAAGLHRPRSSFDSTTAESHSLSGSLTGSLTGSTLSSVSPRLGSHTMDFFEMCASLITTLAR

Cc1cc(Nc2ncc(Br)c(Nc3cccc(F)c3C(N)=O)n2)ccc1S(=O)(=O)NCCOCCOCCOCCOCCNc1cccc2c1C(=O)N(C1CCC(=O)NC1=O)C2=O (stereo not drawn) [TMX.02.174]
logFC ([1]; experiment wp146): −1.826
logFC of PRKAA2 (P54646) ([1]; experiment wp146): −1.826
logFC [2]: −0.7133
logFC GSK3A [2]: −0.7133

NC(=O)c1c(F)cccc1Nc1nc(Nc2ccc(S(=O)(=O)NCCOCCOCCOCCOCCNc3cccc4c3C(=O)N(C3CCC(=O)NC3=O)C4=O)cc2)ncc1Br (stereo not drawn) [TMX.02.138]
logFC ([1]; experiment wp146): −1.476
logFC of PRKAA2 (P54646) ([1]; experiment wp146): −1.476
logFC [2]: −0.8225
logFC GSK3A [2]: −0.8225

Cc1ncsc1-c1ccc([C@H](C)NC(=O)[C@@H]2C[C@@H](O)CN2C(=O)[C@@H](NC(=O)CCCCCN2CCN(c3ccc(Nc4ncc5scc(-c6cccc(NS(C)(=O)=O)c6)c5n4)cc3)CC2)C(C)(C)C)cc1 [RSS0680, (2S,4R)-1-((S)-3,3-Dimethyl-2-(6-(4-(4-((7-(3-(methylsulfonamido)phenyl)thieno[3,2-d]pyrimidin-2-yl)amino)phenyl)piperazin-1-yl)hexanamido)butanoyl)-4-hydroxy-N—((S)-1-(4-(4-methylthiazol-5yl)phenyl)ethyl)pyrrolidine-2-carboxamide]
logFC of SNRK (Q9NRH2) ([3]; Experiment wp117): −0.6321
logFC ([3]; experiment wp080): −0.5567
logFC ([3]; experiment wp117): −0.6321
logFC of SNRK (Q9NRH2) ([3]; experiment wp080): −0.5567

CC(C)S(=O)(=O)c1ccccc1Nc1nc(Nc2ccc(N3CCN(CCOCCNC(=O)CNc4cccc5c4C(=O)N(C4CCC(=O)NC4=O)C5=O)CC3)cc2)ncc1Cl (stereo not drawn) [SK.3.91]
logFC ([4]; experiment wp016): −0.4706
logFC BMP2K ([4]; experiment wp016): −0.4706
logFC ([4]; experiment wp105): −0.4043
logFC BMP2K ([4]; experiment wp105): −0.4043
logFC of SRC ([5]; Accession P12931): −0.5292
logFC ([5]; SRC (P12931), direction down): −0.5292
logFC FYN ([6]; experiment wp105): −0.3586
logFC FYN ([6]; experiment wp107): −0.4288
logFC ([6]; experiment wp105): −0.3586
logFC ([6]; experiment wp107): −0.4288
logFC of PRKAA2 (P54646) ([1]; Experiment wp172): −0.926
logFC ([1]; experiment wp105): −0.9029
logFC ([1]; experiment wp172): −0.926
logFC of PRKAA2 (P54646) ([1]; experiment wp105): −0.9029

O=C(COc1cccc2c1C(=O)N(C1CCC(=O)NC1=O)C2=O)NCCCCCCCN1CCc2cc(Nc3ncc(C4CC4)c(NCCCNC(=O)C4CCC4)n3)ccc2C1 (stereo not drawn) [BSJ.04.178]
logFC ([4]; experiment wp134): −0.6929
logFC BMP2K ([4]; experiment wp134): −0.6929
logFC ([3]; experiment wp134): −1.523
logFC of SNRK (Q9NRH2) ([3]; experiment wp134): −1.523
